According to patent US5416191A, “Bradykinin antagonists” (Cortech, Inc., priority 1993, dated 1995):
Where two headings read alike, the source gives them in different places. Peptide text beside a SMILES is read from it.

Legend:
[1] = biological target: T1, bradykinin receptor of the B2 class (rat uterus) (Rattus norvegicus, UniProt P25023); assay: Rat uterus (RU) in vitro, antagonism of bradykinin
T1 construct: concentration effect curves to bradykinin (BK) on rat uterus in vitro; from tissue; host or cells: rat uterus
T1 sequence (P25023 1-396): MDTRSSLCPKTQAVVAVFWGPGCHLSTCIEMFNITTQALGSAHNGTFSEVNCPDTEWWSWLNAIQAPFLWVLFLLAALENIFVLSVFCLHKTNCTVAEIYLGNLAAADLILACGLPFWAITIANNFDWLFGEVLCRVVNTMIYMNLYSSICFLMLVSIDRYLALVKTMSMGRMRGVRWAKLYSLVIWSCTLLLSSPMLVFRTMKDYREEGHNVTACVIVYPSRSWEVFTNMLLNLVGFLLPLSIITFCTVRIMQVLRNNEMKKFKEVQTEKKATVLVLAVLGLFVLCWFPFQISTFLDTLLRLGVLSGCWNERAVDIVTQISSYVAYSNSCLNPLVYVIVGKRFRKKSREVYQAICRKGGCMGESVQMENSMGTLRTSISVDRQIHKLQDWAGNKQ
Outline: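 Isolated rat uterus; bradykinin antagonism expressed as pA2, the negative log molar antagonist concentration that halves agonist potency. After the highest antagonist concentration, tissues were washed extensively and percent recovery was recorded.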

[2] = biological target: T2, bradykinin receptor of the B2 class (guinea-pig ileum) (Cavia porcellus, UniProt O70526); settings: Table B; Cys position scan, monomers and BMH dimers
T2 sequence (O70526 1-372): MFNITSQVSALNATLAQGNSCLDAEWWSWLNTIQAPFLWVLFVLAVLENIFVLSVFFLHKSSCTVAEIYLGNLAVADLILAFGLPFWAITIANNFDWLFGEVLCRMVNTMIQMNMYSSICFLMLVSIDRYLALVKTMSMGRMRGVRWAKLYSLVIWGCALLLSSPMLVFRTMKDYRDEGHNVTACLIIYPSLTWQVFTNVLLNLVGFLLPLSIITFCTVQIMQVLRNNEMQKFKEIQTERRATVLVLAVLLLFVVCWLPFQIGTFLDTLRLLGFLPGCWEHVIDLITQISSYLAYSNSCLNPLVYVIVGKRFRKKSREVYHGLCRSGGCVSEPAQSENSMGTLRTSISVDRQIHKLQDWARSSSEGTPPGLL

[3] = biological target: T2, bradykinin receptor of the B2 class (guinea-pig ileum)
[4] = Table C, rat uterus, P.A. = Partial Agonist

CC(C)C[C@H](NC(=O)[C@@H](Cc1ccccc1)NC(=O)[C@H](CO)NC(=O)[C@H](Cc1ccccc1)NC(=O)[C@H](CS)NC(=O)[C@@H]1C[C@@H](O)CN1C(=O)[C@@H]1CCCN1C(=O)[C@H](CCCNC(=N)N)NC(=O)[C@H](N)CCCNC(=N)N)C(=O)N[C@@H](CCCNC(=N)N)C(=O)O [CP-0136] (HELM PEPTIDE1{[dR].R.P.[Hyp].C.F.S.[dF].L.R}$$$$V2.0)
pA2 MONOMER [1, 4]: Inactive
pA2 GUINEA PIG ILEUM [2]: Inactive

CC(C)C[C@H](NC(=O)[C@@H](Cc1ccccc1)NC(=O)[C@H](CO)NC(=O)[C@H](Cc1ccccc1)NC(=O)[C@H](CSC1CC(=O)N(CCCCCCN2C(=O)CC(SC[C@H](NC(=O)[C@@H]3C[C@@H](O)CN3C(=O)[C@@H]3CCCN3C(=O)[C@H](CCCNC(=N)N)NC(=O)[C@H](N)CCCNC(=N)N)C(=O)N[C@@H](Cc3ccccc3)C(=O)N[C@@H](CO)C(=O)N[C@H](Cc3ccccc3)C(=O)N[C@@H](CC(C)C)C(=O)N[C@@H](CCCNC(=N)N)C(=O)O)C2=O)C1=O)NC(=O)[C@@H]1C[C@@H](O)CN1C(=O)[C@@H]1CCCN1C(=O)[C@H](CCCNC(=N)N)NC(=O)[C@H](N)CCCNC(=N)N)C(=O)N[C@@H](CCCNC(=N)N)C(=O)O (some centres unmarked) [CP-0137] (HELM PEPTIDE1{[dR].R.P.[Hyp].C.F.S.[dF].L.R}|PEPTIDE2{[dR].R.P.[Hyp].C.F.S.[dF].L.R}|CHEM1{[O=C1CC([*:1])C(=O)N1CCCCCCN1C(=O)CC([*:2])C1=O]}$PEPTIDE1,CHEM1,5:R3-1:R1|PEPTIDE2,CHEM1,5:R3-1:R2$$$V2.0)
pA2 DIMER ([1]; Table C, rat uterus): Inactive
pA2 GUINEA PIG ILEUM [2]: Inactive

CC(C)C[C@H](NC(=O)[C@H](CS)NC(=O)[C@H](CO)NC(=O)[C@H](Cc1ccccc1)NC(=O)CNC(=O)[C@@H]1C[C@@H](O)CN1C(=O)[C@@H]1CCCN1C(=O)[C@H](CCCNC(=N)N)NC(=O)[C@H](N)CCCNC(=N)N)C(=O)N[C@@H](CCCNC(=N)N)C(=O)O [CP-0145] (HELM PEPTIDE1{[dR].R.P.[Hyp].G.F.S.C.L.R}$$$$V2.0)
pA2 MONOMER [1, 4]: Inactive
pA2 GUINEA PIG ILEUM [2]: Inactive

CC(C)C[C@H](NC(=O)[C@@H](CS)NC(=O)[C@H](CO)NC(=O)[C@H](Cc1ccccc1)NC(=O)CNC(=O)[C@@H]1C[C@@H](O)CN1C(=O)[C@@H]1CCCN1C(=O)[C@H](CCCNC(=N)N)NC(=O)[C@H](N)CCCNC(=N)N)C(=O)N[C@@H](CCCNC(=N)N)C(=O)O [CP-0146] (HELM PEPTIDE1{[dR].R.P.[Hyp].G.F.S.[dC].L.R}$$$$V2.0)
pA2 MONOMER [1, 4]: Inactive
pA2 GUINEA PIG ILEUM [2]: Inactive

N=C(N)NCCC[C@@H](N)C(=O)N[C@@H](CCCNC(=N)N)C(=O)N1CCC[C@H]1C(=O)N1C[C@H](O)C[C@H]1C(=O)NCC(=O)N[C@@H](Cc1ccccc1)C(=O)N[C@@H](CO)C(=O)N[C@H](Cc1ccccc1)C(=O)N[C@@H](CS)C(=O)N[C@@H](CCCNC(=N)N)C(=O)O [CP-0147] (HELM PEPTIDE1{[dR].R.P.[Hyp].G.F.S.[dF].C.R}$$$$V2.0)
pA2 MONOMER [1, 4]: Inactive
pA2 GUINEA PIG ILEUM [2]: Inactive

CC(C)C[C@H](NC(=O)[C@@H](Cc1ccccc1)NC(=O)[C@H](CO)NC(=O)[C@H](Cc1ccccc1)NC(=O)CNC(=O)[C@@H]1C[C@@H](O)CN1C(=O)[C@@H]1CCCN1C(=O)[C@H](CCCNC(=N)N)NC(=O)[C@H](N)CCCNC(=N)N)C(=O)N[C@@H](CS)C(=O)O [CP-0148] (HELM PEPTIDE1{[dR].R.P.[Hyp].G.F.S.[dF].L.C}$$$$V2.0)
% REC MONOMER ([1]; Table C, rat uterus): 100%
pA2 MONOMER [1, 4]: Inactive
Kb ([1]; Table C, rat uterus, P.A. = Partial Agonist, read-out: pA2 MONOMER (converted)): 200 nM
pA2 GUINEA PIG ILEUM [2]: Inactive

CC(C)C[C@H](NC(=O)[C@H](CSC1CC(=O)N(CCCCCCN2C(=O)CC(SC[C@H](NC(=O)[C@H](CO)NC(=O)[C@H](Cc3ccccc3)NC(=O)CNC(=O)[C@@H]3C[C@@H](O)CN3C(=O)[C@@H]3CCCN3C(=O)[C@H](CCCNC(=N)N)NC(=O)[C@H](N)CCCNC(=N)N)C(=O)N[C@@H](CC(C)C)C(=O)N[C@@H](CCCNC(=N)N)C(=O)O)C2=O)C1=O)NC(=O)[C@H](CO)NC(=O)[C@H](Cc1ccccc1)NC(=O)CNC(=O)[C@@H]1C[C@@H](O)CN1C(=O)[C@@H]1CCCN1C(=O)[C@H](CCCNC(=N)N)NC(=O)[C@H](N)CCCNC(=N)N)C(=O)N[C@@H](CCCNC(=N)N)C(=O)O (some centres unmarked) [CP-0157] (HELM PEPTIDE1{[dR].R.P.[Hyp].G.F.S.C.L.R}|PEPTIDE2{[dR].R.P.[Hyp].G.F.S.C.L.R}|CHEM1{[O=C1CC([*:1])C(=O)N1CCCCCCN1C(=O)CC([*:2])C1=O]}$PEPTIDE1,CHEM1,8:R3-1:R1|PEPTIDE2,CHEM1,8:R3-1:R2$$$V2.0)
pA2 DIMER ([1]; Table C, rat uterus): Inactive
pA2 GUINEA PIG ILEUM [2]: Inactive

CC(C)C[C@H](NC(=O)[C@@H](CSC1CC(=O)N(CCCCCCN2C(=O)CC(SC[C@@H](NC(=O)[C@H](CO)NC(=O)[C@H](Cc3ccccc3)NC(=O)CNC(=O)[C@@H]3C[C@@H](O)CN3C(=O)[C@@H]3CCCN3C(=O)[C@H](CCCNC(=N)N)NC(=O)[C@H](N)CCCNC(=N)N)C(=O)N[C@@H](CC(C)C)C(=O)N[C@@H](CCCNC(=N)N)C(=O)O)C2=O)C1=O)NC(=O)[C@H](CO)NC(=O)[C@H](Cc1ccccc1)NC(=O)CNC(=O)[C@@H]1C[C@@H](O)CN1C(=O)[C@@H]1CCCN1C(=O)[C@H](CCCNC(=N)N)NC(=O)[C@H](N)CCCNC(=N)N)C(=O)N[C@@H](CCCNC(=N)N)C(=O)O (some centres unmarked) [CP-0158] (HELM PEPTIDE1{[dR].R.P.[Hyp].G.F.S.[dC].L.R}|PEPTIDE2{[dR].R.P.[Hyp].G.F.S.[dC].L.R}|CHEM1{[O=C1CC([*:1])C(=O)N1CCCCCCN1C(=O)CC([*:2])C1=O]}$PEPTIDE1,CHEM1,8:R3-1:R1|PEPTIDE2,CHEM1,8:R3-1:R2$$$V2.0)
pA2 DIMER ([1]; Table C, rat uterus): Inactive
pA2 GUINEA PIG ILEUM [2]: Inactive

N=C(N)NCCC[C@@H](N)C(=O)N[C@@H](CCCNC(=N)N)C(=O)N1CCC[C@H]1C(=O)N1C[C@H](O)C[C@H]1C(=O)NCC(=O)N[C@@H](Cc1ccccc1)C(=O)N[C@@H](CO)C(=O)N[C@H](Cc1ccccc1)C(=O)N[C@@H](CSC1CC(=O)N(CCCCCCN2C(=O)CC(SC[C@H](NC(=O)[C@@H](Cc3ccccc3)NC(=O)[C@H](CO)NC(=O)[C@H](Cc3ccccc3)NC(=O)CNC(=O)[C@@H]3C[C@@H](O)CN3C(=O)[C@@H]3CCCN3C(=O)[C@H](CCCNC(=N)N)NC(=O)[C@H](N)CCCNC(=N)N)C(=O)N[C@@H](CCCNC(=N)N)C(=O)O)C2=O)C1=O)C(=O)N[C@@H](CCCNC(=N)N)C(=O)O (some centres unmarked) [CP-0159] (HELM PEPTIDE1{[dR].R.P.[Hyp].G.F.S.[dF].C.R}|PEPTIDE2{[dR].R.P.[Hyp].G.F.S.[dF].C.R}|CHEM1{[O=C1CC([*:1])C(=O)N1CCCCCCN1C(=O)CC([*:2])C1=O]}$PEPTIDE1,CHEM1,9:R3-1:R1|PEPTIDE2,CHEM1,9:R3-1:R2$$$V2.0)
pA2 DIMER ([1]; Table C, rat uterus): Inactive
pA2 GUINEA PIG ILEUM [2]: Inactive

CC(C)C[C@H](NC(=O)[C@@H](Cc1ccccc1)NC(=O)[C@H](CSC1CC(=O)N(CCN(CCN2C(=O)CC(SC[C@H](NC(=O)[C@H](Cc3ccccc3)NC(=O)CNC(=O)[C@@H]3C[C@@H](O)CN3C(=O)[C@@H]3CCCN3C(=O)[C@H](CCCNC(=N)N)NC(=O)[C@H](N)CCCNC(=N)N)C(=O)N[C@H](Cc3ccccc3)C(=O)N[C@@H](CC(C)C)C(=O)N[C@@H](CCCNC(=N)N)C(=O)O)C2=O)CCN2C(=O)CC(SC[C@H](NC(=O)[C@H](Cc3ccccc3)NC(=O)CNC(=O)[C@@H]3C[C@@H](O)CN3C(=O)[C@@H]3CCCN3C(=O)[C@H](CCCNC(=N)N)NC(=O)[C@H](N)CCCNC(=N)N)C(=O)N[C@H](Cc3ccccc3)C(=O)N[C@@H](CC(C)C)C(=O)N[C@@H](CCCNC(=N)N)C(=O)O)C2=O)C1=O)NC(=O)[C@H](Cc1ccccc1)NC(=O)CNC(=O)[C@@H]1C[C@@H](O)CN1C(=O)[C@@H]1CCCN1C(=O)[C@H](CCCNC(=N)N)NC(=O)[C@H](N)CCCNC(=N)N)C(=O)N[C@@H](CCCNC(=N)N)C(=O)O (some centres unmarked) [CP-0176] (HELM PEPTIDE1{[dR].R.P.[Hyp].G.F.C.[dF].L.R}|PEPTIDE2{[dR].R.P.[Hyp].G.F.C.[dF].L.R}|PEPTIDE3{[dR].R.P.[Hyp].G.F.C.[dF].L.R}|CHEM1{[O=C1CC([*:1])C(=O)N1CCN(CCN1C(=O)CC([*:2])C1=O)CCN1C(=O)CC([*:3])C1=O]}$PEPTIDE1,CHEM1,7:R3-1:R1|PEPTIDE2,CHEM1,7:R3-1:R2|PEPTIDE3,CHEM1,7:R3-1:R3$$$V2.0)
RAT UTERUS % RECOVERED ([1]; Table E): 50%
Kb ([1]; Table E, read-out: RAT UTERUS pA2 (converted)): 2.51 nM
Kb [3]: ~100 nM
